How the values were obtained:
[1] = biological target: hCA I (Homo sapiens, UniProt P00915); test: stopped flow CO2 hydrase assay, hCA I inhibition
Description: (§1) An Applied Photophysics stopped-flow instrument has been used for assaying the CA catalyzed CO2 hydration activity using the Khalifah procedure [23]. The used indicator was phenol red (0.2 mM), the absorbance maximum was of 557 nm, and the buffer was 20 mM Hepes (pH 7.5), whereas 20 mM Na2SO4 were employed for maintaining the ionic strength constant. […] Uncatalyzed rates were subtracted from the observed total rates. […] Inhibitor and enzyme solutions were preincubated together for 15 min, for assuring the formation of the E–I complex. The inhibition constants were obtained by non-linear least squares using the Cheng–Prusoff equation, as reported earlier [24, 25, 26] and represent the mean from at least three different determinations.

[2] = biological target: hCA II (Homo sapiens, UniProt P00918); test: stopped flow CO2 hydrase assay, hCA II inhibition
Description: as §1

[3] = biological target: hCA IX (Homo sapiens, UniProt Q16790); test: stopped flow CO2 hydrase assay, hCA IX inhibition
Description: as §1

[4] = biological target: hCA XII (Homo sapiens, UniProt O43570); test: stopped flow CO2 hydrase assay, hCA XII inhibition
hCA XII, sequence (O43570 25-354): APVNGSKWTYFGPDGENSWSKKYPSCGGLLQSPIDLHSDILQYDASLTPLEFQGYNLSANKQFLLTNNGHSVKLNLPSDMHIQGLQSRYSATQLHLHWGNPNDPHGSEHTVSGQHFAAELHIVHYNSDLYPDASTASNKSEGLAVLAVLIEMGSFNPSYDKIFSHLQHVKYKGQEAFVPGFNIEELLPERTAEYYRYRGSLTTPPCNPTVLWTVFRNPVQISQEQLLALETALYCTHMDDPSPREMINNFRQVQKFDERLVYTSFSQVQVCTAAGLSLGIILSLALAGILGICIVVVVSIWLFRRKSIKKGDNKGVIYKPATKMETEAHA
Description: as §1

hCA I, sequence (P00915 whole entry): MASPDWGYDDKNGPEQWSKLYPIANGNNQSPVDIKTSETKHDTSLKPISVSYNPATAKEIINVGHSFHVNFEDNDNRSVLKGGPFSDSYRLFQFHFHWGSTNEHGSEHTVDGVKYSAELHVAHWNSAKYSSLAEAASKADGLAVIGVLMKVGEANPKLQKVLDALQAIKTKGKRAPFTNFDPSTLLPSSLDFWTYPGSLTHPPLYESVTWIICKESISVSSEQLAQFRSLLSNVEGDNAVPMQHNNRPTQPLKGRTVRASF

melting point [°C]	Ki [1] [nM]	Ki [2] [nM]	Ki [3] [nM]	Ki [4] [nM]	increase in hCA XII activity as compared to the 3,4-dichloro analog ([4]; versus 6g) [fold]	hCA IX, hCA XII/hCA I selectivity ([3]; hCA IX and hCA XII versus hCA I)	Structure (SMILES)
222 to 223	131	41.6	26.1	17.7	–	–	NS(=O)(=O)c1ccc(C(=O)N2CCC(C(=O)NNC(=S)Nc3ccc(Cl)cc3)CC2)cc1 [Compound 6f, N-(4-Chlorophenyl)-2-(1-(4-sulfamoylbenzoyl)piperidine-4-carbonyl)hydrazinecarbothioamide]
232 to 233	442	22.4	4.7	26.9	–	–	NS(=O)(=O)c1ccc(C(=O)N2CCC(C(=O)NNC(=S)Nc3ccc(Cl)c(Cl)c3)CC2)cc1 [Compound 6g, N-(3,4-Dichlorophenyl)-2-(1-(4-sulfamoylbenzoyl)piperidine-4-carbonyl)hydrazinecarbothioamide]
220 to 221	229	53.4	18	2.6	~10	–	NS(=O)(=O)c1ccc(C(=O)N2CCC(C(=O)NNC(=S)Nc3ccc(Cl)cc3Cl)CC2)cc1 [Compound 6h, N-(2,4-Dichlorophenyl)-2-(1-(4-sulfamoylbenzoyl)piperidine-4-carbonyl)hydrazinecarbothioamide]
179 to 180	1340	21.5	24.2	10	–	–	NS(=O)(=O)c1ccc(C(=O)N2CCC(C(=O)NNC(=S)Nc3c(Cl)cccc3Cl)CC2)cc1 [Compound 6i, N-(2,6-Dichlorophenyl)-2-(1-(4-sulfamoylbenzoyl)piperidine-4-carbonyl)hydrazinecarbothioamide]
214 to 215	160	13.1	4.2	4.6	–	about 35 fold	COc1ccccc1NC(=S)NNC(=O)C1CCN(C(=O)c2ccc(S(N)(=O)=O)cc2)CC1 [Compound 6j, N-(2-methoxyphenyl)-2-(1-(4-sulfamoylbenzoyl)piperidine-4-carbonyl)hydrazine-1-carbothioamide]
214 to 215	146	11.2	25.1	29.9	–	–	COc1cccc(NC(=S)NNC(=O)C2CCN(C(=O)c3ccc(S(N)(=O)=O)cc3)CC2)c1 [Compound 6k, N-(3-methoxyphenyl)-2-(1-(4-sulfamoylbenzoyl)piperidine-4-carbonyl)hydrazine-1-carbothioamide]
> 250	211	15.1	22.1	27.8	–	–	COc1ccc(NC(=S)NNC(=O)C2CCN(C(=O)c3ccc(S(N)(=O)=O)cc3)CC2)cc1 [Compound 6l, N-(4-Methoxyphenyl)-2-(1-(4-sulfamoylbenzoyl)piperidine-4-carbonyl)hydrazinecarbothioamide]
> 250	428	36.8	16.6	27.3	–	–	COc1cc(NC(=S)NNC(=O)C2CCN(C(=O)c3ccc(S(N)(=O)=O)cc3)CC2)cc(OC)c1OC [Compound 6m, 2-(1-(4-Sulfamoylbenzoyl)piperidine-4-carbonyl)-N-(3,4,5-trimethoxyphenyl)hydrazinecarbothioamide]
219 to 220	431	15.2	6.9	4.9	–	–	NS(=O)(=O)c1ccc(C(=O)N2CCC(C(=O)NNC(=S)Nc3ccccc3F)CC2)cc1 [Compound 6n, N-(2-Fluorophenyl)-2-(1-(4-sulfamoylbenzoyl)piperidine-4-carbonyl)hydrazinecarbothioamide]
215 to 216	79.6	23	20.1	15.9	–	–	NS(=O)(=O)c1ccc(C(=O)N2CCC(C(=O)NNC(=S)Nc3ccc(F)cc3)CC2)cc1 [Compound 6p, N-(4-Fluorophenyl)-2-(1-(4-sulfamoylbenzoyl)piperidine-4-carbonyl)hydrazinecarbothioamide]
242 to 243	65.4	28.2	5.9	5.6	–	–	NS(=O)(=O)c1ccc(C(=O)N2CCC(C(=O)NNC(=S)Nc3c(F)cccc3F)CC2)cc1 [Compound 6q, N-(2,6-Difluorophenyl)-2-(1-(4-sulfamoylbenzoyl)piperidine-4-carbonyl)hydrazinecarbothioamide]
209 to 210	277	38.5	9	18.4	–	–	Cc1ccccc1NC(=S)NNC(=O)C1CCN(C(=O)c2ccc(S(N)(=O)=O)cc2)CC1 [Compound 6r, 2-(1-(4-sulfamoylbenzoyl)piperidine-4-carbonyl)-N-(o-tolyl)hydrazine-1-carbothioamide]
233 to 234	308	89.6	4.7	9.5	–	–	Cc1cccc(C)c1NC(=S)NNC(=O)C1CCN(C(=O)c2ccc(S(N)(=O)=O)cc2)CC1 [Compound 6u, N-(2,6-Dimethylphenyl)-2-(1-(4-sulfamoylbenzoyl)piperidine-4-carbonyl)hydrazinecarbothioamide]
> 250	198	71.4	24.2	25	–	–	NS(=O)(=O)c1ccc(C(=O)N2CCC(C(=O)NNC(=S)NCc3ccccc3)CC2)cc1 [Compound 6v, N-Benzyl-2-(1-(4-sulfamoylbenzoyl)piperidine-4-carbonyl)hydrazinecarbothioamide]
240 to 241	178	29.3	31.7	29.9	–	–	COc1ccc(CNC(=S)NNC(=O)C2CCN(C(=O)c3ccc(S(N)(=O)=O)cc3)CC2)cc1 [Compound 6w, N-(4-Methoxybenzyl)-2-(1-(4-sulfamoylbenzoyl)piperidine-4-carbonyl)hydrazinecarbothioamide]
183 to 184	118	5.7	1.7	19.6	–	–	NS(=O)(=O)c1ccc(C(=O)N2CCC(C(=O)NNC(=S)NC3CCCCC3)CC2)cc1 [Compound 6y, N-Cyclohexyl-2-(1-(4-sulfamoylbenzoyl)piperidine-4-carbonyl)hydrazinecarbothioamide]
